As usually defined, the IC50 is the concentration that inhibits the measured activity by half. High values mean a need for much substance, low ones inhibition by little substance.

In one experiment the target is Wee1 (Homo sapiens, UniProt P30291). As to the kind of experiment: Wee1 pCDK1 activity (known assay). It is filed as cell-based. The method, then:
(§1) The Wee1 pCDK1 and PLK1 activities were determined using known assays.

The target in a further experiment is PLK1 (Homo sapiens, UniProt P53350). Nature of the experiment: PLK1 activity (known assay). The experiment is classed as biochemical. The protocol: as §1
Chain of PLK1 (P53350 whole entry, species assumed): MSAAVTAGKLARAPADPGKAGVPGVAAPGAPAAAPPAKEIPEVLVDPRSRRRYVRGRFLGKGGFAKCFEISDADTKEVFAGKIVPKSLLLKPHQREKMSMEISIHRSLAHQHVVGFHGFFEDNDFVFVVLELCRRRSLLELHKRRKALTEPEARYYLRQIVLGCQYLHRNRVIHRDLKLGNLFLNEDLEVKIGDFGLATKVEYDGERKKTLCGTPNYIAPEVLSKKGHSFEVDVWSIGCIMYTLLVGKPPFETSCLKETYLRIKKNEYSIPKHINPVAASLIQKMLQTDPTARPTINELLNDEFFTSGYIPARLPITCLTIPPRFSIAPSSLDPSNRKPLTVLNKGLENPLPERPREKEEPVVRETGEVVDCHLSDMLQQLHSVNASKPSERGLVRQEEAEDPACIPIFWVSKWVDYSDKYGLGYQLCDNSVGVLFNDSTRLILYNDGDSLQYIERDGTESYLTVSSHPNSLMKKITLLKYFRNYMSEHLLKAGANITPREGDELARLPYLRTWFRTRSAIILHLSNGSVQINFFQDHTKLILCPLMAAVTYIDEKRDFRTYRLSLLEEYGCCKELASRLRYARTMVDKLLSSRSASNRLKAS

Chain of Wee1 (P30291 whole entry, species assumed): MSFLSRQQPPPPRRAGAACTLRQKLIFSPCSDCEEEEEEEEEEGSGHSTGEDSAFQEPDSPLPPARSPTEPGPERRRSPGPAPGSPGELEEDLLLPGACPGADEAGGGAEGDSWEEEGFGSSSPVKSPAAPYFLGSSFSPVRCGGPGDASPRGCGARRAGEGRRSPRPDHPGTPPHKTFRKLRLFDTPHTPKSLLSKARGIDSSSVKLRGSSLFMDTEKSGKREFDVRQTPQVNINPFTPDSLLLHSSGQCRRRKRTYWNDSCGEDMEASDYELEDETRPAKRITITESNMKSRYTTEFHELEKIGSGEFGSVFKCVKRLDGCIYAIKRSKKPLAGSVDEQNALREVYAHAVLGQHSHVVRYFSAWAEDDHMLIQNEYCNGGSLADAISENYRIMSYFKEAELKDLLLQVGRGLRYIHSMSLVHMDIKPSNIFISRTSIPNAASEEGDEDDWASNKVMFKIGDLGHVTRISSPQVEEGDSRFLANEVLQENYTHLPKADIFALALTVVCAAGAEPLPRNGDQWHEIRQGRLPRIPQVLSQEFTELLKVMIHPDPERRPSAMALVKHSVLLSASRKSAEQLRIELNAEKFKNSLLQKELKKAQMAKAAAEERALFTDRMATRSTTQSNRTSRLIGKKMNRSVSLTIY

In the case of `C[C@@H]1CN(C)CCN1c1ccc(Nc2ncc(C#N)c(Nc3cccc(N4CCCC4=O)n3)n2)cc1` [Example 64, 4-[[6-(2-oxopyrrolidin-1-yl)-2-pyridyl]amino]-2-[4-[(2R)-2,4-dimethylpiperazin-1-yl]anilino]pyrimidine-5-carbonitrile], the values for the IC50 against Wee1 and against PLK1 were 250 to 500 nM and greater than 1000 nM, respectively. Regarding `CCC1(O)CCc2ccc(Nc3nc(Nc4ccc5c(c4)CNCC54CC4)ncc3C#N)nc21` (stereo not drawn) [Example 55, 4-[(7-ethyl-7-hydroxy-5,6-dihydrocyclopenta[b]pyridin-2-yl)amino]-2-(spiro[2,3-dihydro-1H-isoquinoline-4,1′-cyclopropane]-7-ylamino)pyrimidine-5-carbonitrile], the values for the IC50 against Wee1 and against PLK1 were greater than 1000 nM and no more than 100 nM, respectively. In the case of `CN1CCc2cc(Nc3ncc(C#N)c(Nc4ccc5c(n4)C(C)(O)CC5)n3)ccc2C1(C)C` (stereo not drawn) [Example 61, 4-[(7-hydroxy-7-methyl-5,6-dihydrocyclopenta[b]pyridin-2-yl)amino]-2-[(1,1,2-trimethyl-3,4-dihydroisoquinolin-6-yl)amino]pyrimidine-5-carbonitrile], the IC50 is 250 to 500 nM against Wee1 and greater than 1000 nM against PLK1.

In the case of `CCC1(O)CCc2ccc(Nc3nc(Nc4ccc(C5CCN(C)CC5)c(C)c4)ncc3C#N)nc21` (single isomer, unassigned) [Example 22], the concentration for half-maximal inhibition (IC50) against Wee1 fell in the range of 250 to 500 nM; at PLK1, 100 to 250 nM.

With `CCC1(O)CCc2ccc(Nc3nc(Nc4ccc(N5CC6CCC(C5)N6C)cc4)ncc3C#N)nc21` (stereo not drawn) [Example 35, 4-[(7-ethyl-7-hydroxy-5,6-dihydrocyclopenta[b]pyridin-2-yl)amino]-2-[4-(8-methyl-3,8-diazabicyclo[3.2.1]octan-3-yl)anilino]pyrimidine-5-carbonitrile], the half-inhibitory concentration (IC50) on Wee1 was 100 to 250 nM; against PLK1 it was no more than 100 nM. For the compound `CCC1(O)CCc2ccc(Nc3nc(Nc4cc(C)c(C5CCN(C)CC5)c(F)c4)ncc3C#N)nc21` (stereo not drawn) [Example 41, 4-[(7-ethyl-7-hydroxy-5,6-dihydrocyclopenta[b]pyridin-2-yl)amino]-2-[3-fluoro-5-methyl-4-(1-methyl-4-piperidyl)anilino]pyrimidine-5-carbonitrile], the values for the IC50 at Wee1 and against PLK1 were 100 to 250 nM and 250 to 500 nM, respectively. Take `CCC1(O)CCc2ccc(Nc3nc(Nc4ccc(N5CCC6(CCN(C)CC6)CC5)cc4)ncc3C#N)nc21` (stereo not drawn) [Example 39, 4-[(7-ethyl-7-hydroxy-5,6-dihydrocyclopenta[b]pyridin-2-yl)amino]-2-[4-(9-methyl-3,9-diazaspiro[5.5]undecan-3-yl)anilino]pyrimidine-5-carbonitrile]: the IC50 at Wee1 was 100 to 250 nM; on PLK1, no more than 100 nM. For the compound `CCC1(O)CCc2ccc(Nc3nc(Nc4ccc(C5CCN(C)CC5)c(C)c4)ncc3C#N)nc21` (stereo not drawn) [Example 20, 4-[(7-ethyl-7-hydroxy-5,6-dihydrocyclopenta[b]pyridin-2-yl)amino]-2-[3-methyl-4-(1-methyl-4-piperidyl)anilino]pyrimidine-5-carbonitrile], the values for the IC50 against Wee1 and at PLK1 were no more than 100 nM and 100 to 250 nM, respectively. On to `Cc1cc(Nc2ncc(C#N)c(Nc3cccc(N4CCCC4=O)n3)n2)cc2c1CCN(C)C2` [Example 75, 2-[(2,5-dimethyl-3,4-dihydro-1H-isoquinolin-7-yl)amino]-4-[[6-(2-oxopyrrolidin-1-yl)-2-pyridyl]amino]pyrimidine-5-carbonitrile], for which the results for the IC50 against Wee1 and on PLK1 were no more than 100 nM and 100 to 250 nM, respectively. Regarding `Cc1cc(Nc2ncc(C#N)c(Nc3cccc(N4CCCC4=O)n3)n2)ccc1C1CCN(C)CC1` [Example 62, 2-[3-methyl-4-(1-methyl-4-piperidyl)anilino]-4-[[6-(2-oxopyrrolidin-1-yl)-2-pyridyl]amino]pyrimidine-5-carbonitrile], the IC50 on Wee1 is no more than 100 nM; on PLK1, 250 to 500 nM. Consider `CN1CCc2cc(Nc3ncc(C#N)c(Nc4cccc(N5CCCC5=O)n4)n3)cc(Cl)c2C1` [Example 76, 2-[(8-chloro-2-methyl-3,4-dihydro-1H-isoquinolin-6-yl)amino]-4-[[6-(2-oxopyrrolidin-1-yl)-2-pyridyl]amino]pyrimidine-5-carbonitrile], for which the figures for the IC50 at Wee1 and at PLK1 were 500 to 1000 nM and greater than 1000 nM, respectively. `CCC1(O)CCc2ccc(Nc3nc(Nc4ccc(N5C6CCC5CN(C)C6)cc4)ncc3C#N)nc21` (single isomer, unassigned) [Example 37]: the IC50 against Wee1 and against PLK1 was greater than 1000 nM throughout. For `C[C@H]1CN(C)CCN1c1ccc(Nc2ncc(C#N)c(Nc3cccc(N4CCOC4=O)n3)n2)cc1` [Example 9, 4-[[6-(2-oxooxazolidin-3-yl)-2-pyridyl]amino]-2-[4-[(2S)-2,4-dimethylpiperazin-1-yl]anilino]pyrimidine-5-carbonitrile], the IC50 on Wee1 was 100 to 250 nM; against PLK1, greater than 1000 nM. On to `CCC1(O)CCc2ccc(Nc3nc(Nc4ccc5c(c4)CCN(C)C5(C)C)ncc3C#N)nc21` (stereo not drawn) [Example 26, 4-[(7-ethyl-7-hydroxy-5,6-dihydrocyclopenta[b]pyridin-2-yl)amino]-2-[(1,1,2-trimethyl-3,4-dihydroisoquinolin-6-yl)amino]pyrimidine-5-carbonitrile], for which the IC50 was no more than 100 nM against Wee1 and greater than 1000 nM against PLK1. `CCN1CCCc2ccc(Nc3nc(Nc4ccc(N5CCN(C)CC5)cc4)ncc3C#N)nc21` [Example 6, 4-[(8-ethyl-6,7-dihydro-5H-1,8-naphthyridin-2-yl)amino]-2-[4-(4-methylpiperazin-1-yl)anilino]pyrimidine-5-carbonitrile] gave an IC50 against Wee1 of 500 to 1000 nM. Turning to `CN1CCN(c2ccc(Nc3ncc(C#N)c(Nc4ccc5c(n4)C(C)(O)CC5)n3)cc2)CC1` (stereo not drawn) [Example 8, 4-[(7-hydroxy-7-methyl-5,6-dihydrocyclopenta[b]pyridin-2-yl)amino]-2-[4-(4-methylpiperazin-1-yl)anilino]pyrimidine-5-carbonitrile], the IC50 against Wee1 is 100 to 250 nM; against PLK1 it was no more than 100 nM. Turning to `CCC1(O)CCc2ccc(Nc3nc(Nc4ccc(C5CCN(C)CC5)c(COC)c4)ncc3C#N)nc21` (stereo not drawn) [Example 44, 4-[(7-ethyl-7-hydroxy-5,6-dihydrocyclopenta[b]pyridin-2-yl)amino]-2-[3-(methoxymethyl)-4-(1-methyl-4-piperidyl)anilino]pyrimidine-5-carbonitrile], the figures for the IC50 at Wee1 and against PLK1 were 100 to 250 nM and 250 to 500 nM, respectively. Take `Cc1cc(Nc2ncc(C#N)c(Nc3cccc(N4CCOC4=O)n3)n2)ccc1C1CCN(C)CC1` [Example 11, 2-[3-methyl-4-(1-methyl-4-piperidyl)anilino]-4-[[6-(2-oxooxazolidin-3-yl)-2-pyridyl]amino]pyrimidine-5-carbonitrile]: the IC50 at Wee1 was 100 to 250 nM. `Cc1cc(Nc2ncc(C#N)c(Nc3cccc(N4CCCC4=O)n3)n2)cc2c1CNCC2` [Example 77, 2-[(8-methyl-1,2,3,4-tetrahydroisoquinolin-6-yl)amino]-4-[[6-(2-oxopyrrolidin-1-yl)-2-pyridyl]amino]pyrimidine-5-carbonitrile] registered an IC50 at Wee1 of 500 to 1000 nM. The compound `CN1CCN(c2ccc(Nc3ncc(C#N)c(Nc4cccc(-n5ccccc5=O)n4)n3)cc2)CC1` [Example 3, 2-[4-(4-methylpiperazin-1-yl)anilino]-4-[[6-(2-oxo-1-pyridyl)-2-pyridyl]amino]pyrimidine-5-carbonitrile] returned an IC50 at Wee1 of 500 to 1000 nM.

Values taken from US20240228459A1 (Boundless Bio, Inc., priority 2022, published 2024).
